Data: patent US12180194B2, “Multi-aziridine compound” (Covestro (Netherlands) B.V., priority 2018, dated 2024)

Experiments:
[1] = system: Rtkn-GFP; assay: ToxTracker genotoxicity assay, Rtkn-GFP reporter induction; settings: for Genotoxicity test, With S9 rat liver extract, Rtkn, 10 / Genotoxicity test, Without S9 rat liver extract, Rtkn, 10: GFP induction vs vehicle at 10% cytotoxicity; for Genotoxicity test, With S9 rat liver extract, Rtkn, 10 / Genotoxicity test, With S9 rat liver extract, Rtkn, 25 / Genotoxicity test, With S9 rat liver extract, Rtkn, 50: 3 h exposure with S9, 24 h recovery; for Genotoxicity test, Without S9 rat liver extract, Rtkn, 10 / Genotoxicity test, Without S9 rat liver extract, Rtkn, 25 / Genotoxicity test, Without S9 rat liver extract, Rtkn, 50: 24 h exposure, no S9; for Genotoxicity test, With S9 rat liver extract, Rtkn, 25 / Genotoxicity test, Without S9 rat liver extract, Rtkn, 25: GFP induction vs vehicle at 25% cytotoxicity; for Genotoxicity test, With S9 rat liver extract, Rtkn, 50 / Genotoxicity test, Without S9 rat liver extract, Rtkn, 50: GFP induction vs vehicle at 50% cytotoxicity; for Genotoxicity test, Rtkn induction level: fold induction
[2] = system: Bscl2-GFP; assay: ToxTracker genotoxicity assay, Bscl2-GFP reporter induction; settings: for Genotoxicity test, With S9 rat liver extract, Bscl 2, 10 / Genotoxicity test, Without S9 rat liver extract, Bscl 2, 10: GFP induction vs vehicle at 10% cytotoxicity; for Genotoxicity test, With S9 rat liver extract, Bscl 2, 10 / Genotoxicity test, With S9 rat liver extract, Bscl 2, 25 / Genotoxicity test, With S9 rat liver extract, Bscl 2, 50: 3 h exposure with S9, 24 h recovery; for Genotoxicity test, Without S9 rat liver extract, Bscl 2, 10 / Genotoxicity test, Without S9 rat liver extract, Bscl 2, 25 / Genotoxicity test, Without S9 rat liver extract, Bscl 2, 50: 24 h exposure, no S9; for Genotoxicity test, With S9 rat liver extract, Bscl 2, 25 / Genotoxicity test, Without S9 rat liver extract, Bscl 2, 25: GFP induction vs vehicle at 25% cytotoxicity; for Genotoxicity test, With S9 rat liver extract, Bscl 2, 50 / Genotoxicity test, Without S9 rat liver extract, Bscl 2, 50: GFP induction vs vehicle at 50% cytotoxicity; for Genotoxicity test, Bscl 2 induction level: fold induction
[3] = with S9 rat liver extract, concentration 10 (10% cytotoxicity)
[4] = with S9 rat liver extract, concentration 25 (25% cytotoxicity)
[5] = with S9 rat liver extract, concentration 50 (50% cytotoxicity)
[6] = without S9 rat liver extract, concentration 10 (10% cytotoxicity)
[7] = without S9 rat liver extract, concentration 25 (25% cytotoxicity)
[8] = without S9 rat liver extract, concentration 50 (50% cytotoxicity)

CCCCCCCCCC(=O)OCC(CN1CC1C)OC(=O)NC1CCC(CC2CCC(NC(=O)OC(COC(=O)CCCCCCCCC)CN3CC3C)CC2)CC1 (stereo not shown) [Ex. 23]
Genotoxicity test, With S9 rat liver extract, Rtkn, 10 [1]: 1.0 fold | Genotoxicity test, Without S9 rat liver extract, Rtkn, 10 [1]: 1.1 fold | Genotoxicity test, With S9 rat liver extract, Rtkn, 25 [1]: 1.2 fold | Genotoxicity test, Without S9 rat liver extract, Rtkn, 25 [1]: 1.2 fold | Genotoxicity test, With S9 rat liver extract, Rtkn, 50 [1]: 1.2 fold | Genotoxicity test, Without S9 rat liver extract, Rtkn, 50 [1]: 1.1 fold | Genotoxicity test, With S9 rat liver extract, Bscl 2, 10 [2]: 1.1 fold | Genotoxicity test, Without S9 rat liver extract, Bscl 2, 10 [2]: 1.1 fold | Genotoxicity test, With S9 rat liver extract, Bscl 2, 25 [2]: 1.1 fold | Genotoxicity test, Without S9 rat liver extract, Bscl 2, 25 [2]: 1.2 fold | Genotoxicity test, With S9 rat liver extract, Bscl 2, 50 [2]: 1.1 fold | Genotoxicity test, Without S9 rat liver extract, Bscl 2, 50 [2]: 1.2 fold

CCCCCCCCCC(=O)OCC(CN1CC1C)OC(=O)NCCCCCCn1c(=O)n(CCCCCCNC(=O)OC(COC(=O)CCCCCCCCC)CN2CC2C)c(=O)n(CCCCCCNC(=O)OC(COC(=O)CCCCCCCCC)CN2CC2C)c1=O (stereo not shown) [Ex. 24]
Genotoxicity test, With S9 rat liver extract, Rtkn, 10 [1]: 1.1 fold | Genotoxicity test, Without S9 rat liver extract, Rtkn, 10 [1]: 1.1 fold | Genotoxicity test, With S9 rat liver extract, Rtkn, 25 [1]: 1.1 fold | Genotoxicity test, Without S9 rat liver extract, Rtkn, 25 [1]: 1.2 fold | Genotoxicity test, With S9 rat liver extract, Rtkn, 50 [1]: 1.2 fold | Genotoxicity test, Without S9 rat liver extract, Rtkn, 50 [1]: 1.0 fold | Genotoxicity test, With S9 rat liver extract, Bscl 2, 10 [2]: 1.0 fold | Genotoxicity test, Without S9 rat liver extract, Bscl 2, 10 [2]: 1.1 fold | Genotoxicity test, With S9 rat liver extract, Bscl 2, 25 [2]: 1.1 fold | Genotoxicity test, Without S9 rat liver extract, Bscl 2, 25 [2]: 1.2 fold | Genotoxicity test, With S9 rat liver extract, Bscl 2, 50 [2]: 1.1 fold | Genotoxicity test, Without S9 rat liver extract, Bscl 2, 50 [2]: 1.0 fold

COCCOCCOCCOCCOCCOCCOCCOCCOCCOCCOCCOCCOCCOCC(CN1CC1C)OC(=O)NCCCCCCn1c(=O)n(CCCCCCNC(=O)OC(COCCOCCOCCOCCOCCOCCOCCOCCOCCOCCOCCOCCOCCOC)CN2CC2C)c(=O)n(CCCCCCNC(=O)OC(COCCOCCOCCOCCOCCOCCOCCOCCOCCOCCOCCOCCOCCOC)CN2CC2C)c1=O (stereo not shown) [Ex. 29]
Genotoxicity test, With S9 rat liver extract, Rtkn, 10 [1]: 1.1 fold | Genotoxicity test, Without S9 rat liver extract, Rtkn, 10 [1]: 1.0 fold | Genotoxicity test, With S9 rat liver extract, Rtkn, 25 [1]: 1.1 fold | Genotoxicity test, Without S9 rat liver extract, Rtkn, 25 [1]: 1.1 fold | Genotoxicity test, With S9 rat liver extract, Rtkn, 50 [1]: 1.1 fold | Genotoxicity test, Without S9 rat liver extract, Rtkn, 50 [1]: 1.1 fold | Genotoxicity test, With S9 rat liver extract, Bscl 2, 10 [2]: 1.1 fold | Genotoxicity test, Without S9 rat liver extract, Bscl 2, 10 [2]: 1.1 fold | Genotoxicity test, With S9 rat liver extract, Bscl 2, 25 [2]: 1.1 fold | Genotoxicity test, Without S9 rat liver extract, Bscl 2, 25 [2]: 1.4 fold | Genotoxicity test, With S9 rat liver extract, Bscl 2, 50 [2]: 1.1 fold | Genotoxicity test, Without S9 rat liver extract, Bscl 2, 50 [2]: 1.4 fold

COCCOCCOCCOCCOCCOCCOCCOCCOCCOCCOCCOCCOCCOCCOCCOCCOCCOCCOCCOCCOCCOCCOCCOCCOCCOCC(CN1CC1C)OC(=O)NCCCCCCn1c(=O)n(CCCCCCNC(=O)OC(COCCOCCOCCOCCOCCOCCOCCOCCOCCOCCOCCOCCOCCOCCOCCOCCOCCOCCOCCOCCOCCOCCOCCOCCOCCOC)CN2CC2C)c(=O)n(CCCCCCNC(=O)OC(COCCOCCOCCOCCOCCOCCOCCOCCOCCOCCOCCOCCOCCOCCOCCOCCOCCOCCOCCOCCOCCOCCOCCOCCOCCOC)CN2CC2C)c1=O (stereo not shown) [Ex. 30]
Genotoxicity test, Rtkn induction level [1, 3]: 0.8 | Genotoxicity test, Rtkn induction level [1, 4]: 0.9 | Genotoxicity test, Rtkn induction level [1, 5]: 1.0 | Genotoxicity test, Rtkn induction level [1, 6]: 0.9 | Genotoxicity test, Rtkn induction level [1, 7]: 0.9 | Genotoxicity test, Rtkn induction level [1, 8]: 1.0 | Genotoxicity test, Bscl 2 induction level [2, 3]: 1.0 | Genotoxicity test, Bscl 2 induction level [2, 4]: 1.5 | Genotoxicity test, Bscl 2 induction level [2, 5]: 1.8 | Genotoxicity test, Bscl 2 induction level [2, 6]: 1.0 | Genotoxicity test, Bscl 2 induction level [2, 7]: 1.3 | Genotoxicity test, Bscl 2 induction level [2, 8]: 1.6

CCCCOCC(CN1CC1(C)C)OC(=O)NCCCCCCn1c(=O)n(CCCCCCNC(=O)OC(COCCCC)CN2CC2(C)C)c(=O)n(CCCCCCNC(=O)OC(COCCCC)CN2CC2(C)C)c1=O (stereo not shown) [Ex. 31]
Genotoxicity test, Rtkn induction level [1, 3]: 1.2 | Genotoxicity test, Rtkn induction level [1, 4]: 1.2 | Genotoxicity test, Rtkn induction level [1, 5]: 1.3 | Genotoxicity test, Rtkn induction level [1, 6]: 1.2 | Genotoxicity test, Rtkn induction level [1, 7]: 1.2 | Genotoxicity test, Bscl 2 induction level [2, 3]: 1.1 | Genotoxicity test, Bscl 2 induction level [2, 4]: 1.1 | Genotoxicity test, Bscl 2 induction level [2, 5]: 1.1 | Genotoxicity test, Bscl 2 induction level [2, 6]: 1.2 | Genotoxicity test, Bscl 2 induction level [2, 7]: 1.2

CCCCOCC(CN1CC1CC)OC(=O)NCCCCCCn1c(=O)n(CCCCCCNC(=O)OC(COCCCC)CN2CC2CC)c(=O)n(CCCCCCNC(=O)OC(COCCCC)CN2CC2CC)c1=O (stereo not shown) [Ex. 32]
Genotoxicity test, Rtkn induction level [1, 3]: 1.0 | Genotoxicity test, Rtkn induction level [1, 4]: 1.1 | Genotoxicity test, Rtkn induction level [1, 5]: 1.1 | Genotoxicity test, Rtkn induction level [1, 6]: 1.0 | Genotoxicity test, Rtkn induction level [1, 7]: 1.1 | Genotoxicity test, Rtkn induction level [1, 8]: 1.1 | Genotoxicity test, Bscl 2 induction level [2, 3]: 1.1 | Genotoxicity test, Bscl 2 induction level [2, 4]: 1.1 | Genotoxicity test, Bscl 2 induction level [2, 5]: 1.1 | Genotoxicity test, Bscl 2 induction level [2, 6]: 1.1 | Genotoxicity test, Bscl 2 induction level [2, 7]: 1.2 | Genotoxicity test, Bscl 2 induction level [2, 8]: 1.3
